Results reported in BindingDB's records for doi:10.1021/jm970640l (University of Versailles Saint-Quentin-en-Yvelines, 1998).

Assay: Inhibitory activity against hydrolysis of Gly-Pro-pNa by Dipeptidyl peptidase IV purified from CD26-negative C8166 cells

CCCCCCCC[S+](CCCCCCCC)Cc1ccc2cc1C(=O)NCC(=O)NCC(=O)NCCCC[C@H](N)C(=O)N1CCC[C@H]1C(=O)N2 [Cyclo(Lys(alphaH2+)-Pro-Aba-[CH2SOct2-]-Gly2-), 2CF3COO-]
IC50: 630 nM
